Values quoted from earlier work as cited in patent US20090214682A1, “Composition and methods for weight loss in a subject” (priority 2008, published 2009).
Where two headings read alike, the source gives them in different places.

How the values were obtained:
[1] = rats
[2] = not given; remark: listed apart in the source
[3] = obese women
[4] = rats, high fat diet, 12 weeks
[5] = vs placebo
[6] = not given; remark: listed apart in the source
[7] = 8 weeks, overweight subjects, vs placebo
[8] = not given; remark: listed apart in the source

In the case of [Cr] [Chromium], the body fat (combined with exercise) is given as “reduce body fat”, the lean mass (combined with exercise) is given as “increase lean mass” and the HDL cholesterol (human, in vivo) is given as “increase HDL”.
For O=C(O)CC(O)(C(=O)O)C(O)C(=O)O (stereo not shown) [HCA, 1,2-dihydroxypropane-1,2,3-tricarboxylic acid], the appetite [1] is listed as “repress appetite”, the fatty acid synthesis [1] is listed as “inhibit fatty acid synthesis” and the caloric intake ([2]; clinical studies) is listed as “reduction in caloric intake”. For the same compound, the blood cholesterol profile ([2]; daily, moderate exercise, 8 weeks) was “improved blood cholesterol profile”, the weight loss ([2]; daily, moderate exercise, 8 weeks, vs placebo) was “increased weight loss” and the serotonin levels ([2]; human, in vivo) was “significantly increased”. The “fat oxidation during exercise” value ([2]; untrained men and women) was “increasing fat oxidation”.
For Cn1c(=O)c2c(ncn2C)n(C)c1=O [caffeine, 3,7-dihydro-1,3,7-trimethyl-1H-purine-2,6-dione], the weight loss [3] is listed as “Significant weight loss”, the body fat [4] is listed as “generally reduced” and the “abdominal adipose tissue weight” value ([4]; vs control group) is listed as “significant decrease”. The serum triglyceride levels ([4]; vs control group) was “significant decrease”.
In the case of CCCCCCCCCCCC(C[C@@H]1OC(=O)[C@H]1CCCCCC)OC(=O)[C@H](CC(C)C)NC=O (stereo partly drawn) [orlistat, N-formyl-L-leucine-1-[[(2S,3S)-3-hexyl-4oxo-2-oxetanyl]methyl]dodecyl ester], the LDL cholesterol levels ([5]; one year treatment) is given as “greater improvements then placebo”, the total serum cholesterol ([5]; one year treatment) is given as “greater improvements then placebo” and the weight loss ([5]; persons with type 2 diabetes) is given as “more significant weight loss then the placebo group”. For the same compound, the tolerability ([6]; 60 mg vs larger dose) was “generally better tolerated”, the “efficacy for weight loss relative to prescription dose” value ([6]; OTC 60 mg vs prescription 120 mg) was “about 85%” and the “inhibition of absorption of ingested fats” value ([6]; OTC dose 60 mg) was “about 25%”. The “average weight loss of initial body weight” value ([6]; OTC dose 60 mg, over 16 weeks) was “about 5%”.
For Cn1c(=O)c2[nH]cnc2n(C)c1=O [theophylline, 3,7-dihydro-1,3-dimethyl-1H-purine-2,6-dione], the body fat [4] is given as “generally reduced”.
For chromium polynicotinate, the body fat [7] is given as “significant loss of body fat”, the systolic blood pressure ([8]; vs control groups) is given as “effective in lowering systolic blood pressure” and the “free radical damage in liver and kidney tissue” value ([8]; vs controls) is given as “less free radical damage”.
